The text below walks through data of article PMC8958504 (Journal of Medicinal Chemistry, 2022).

Structures are written as SMILES.

One data set concerns iNOS. The experiment in a line: Western blotting of iNOS in hippocampal slices exposed to OA. Particulars: hippocampal slices treated with OA. It counts as cell-based, mouse. An excerpt: As iNOS can be produced through the NF-κB (nuclear factor kappa-light-chain-enhancer of activated B cells) pathway, we analyzed the levels of p65, one of the components that form the NF-κB transcription factor family.[82] […] We also measured HO-1, an inducible enzyme transcribed by NRF2, known for its anti-inflammatory, antioxidant, and neuroprotective effects. […] NRF2 and NF-κB signaling pathways cooperate to maintain the physiological homeostasis of cellular redox status and to regulate the cellular response to stress and inflammation.[19],[83] […] This last mechanism could be related to our resveratrol-based MTDL 4e.
After acute treatment, the hippocampal slices were lysed in a cold AKT lysis buffer (137 mM NaCl, 20 mM NaF, 10% glycerol, 20 mM Tris–HCl, 1% Nonidet P-40, 1 μg/mL leupeptin, 1 mM phenylmethylsulfonylfluoride, 1 mM sodium pyrophosphate, and 1 mM Na3VO4, pH 7.5). The total protein in each sample was quantified using the Pierce BCA protein kit (Thermo Fisher). 20 μg of protein was resolved by sodium dodecyl sulfate polyacrylamide gel electrophoresis (SDS-PAGE) and transferred to Immobilon-P PVDF membranes (Millipore Corp.). […] The membranes were washed, incubated with ECL WB Kit (GE Healthcare, Amersham), and exposed using a ChemiDoc MP system (Bio-Rad Laboratories) for the visualization of the specific bands, which were then analyzed with Fiji software.
In general terms: Immunoblotting shows a protein as a band on a membrane.

Data set [1] has as its system NRF2-ARE signaling pathway. Briefly: cells. Type of data set: cell-based. To be noted: concentration required to double luciferase activity, AREc32 cells, 24 h.
The target of a further data set is T1, hMAO-B (Homo sapiens, UniProt P27338).
T1 sequence (P27338 1-520): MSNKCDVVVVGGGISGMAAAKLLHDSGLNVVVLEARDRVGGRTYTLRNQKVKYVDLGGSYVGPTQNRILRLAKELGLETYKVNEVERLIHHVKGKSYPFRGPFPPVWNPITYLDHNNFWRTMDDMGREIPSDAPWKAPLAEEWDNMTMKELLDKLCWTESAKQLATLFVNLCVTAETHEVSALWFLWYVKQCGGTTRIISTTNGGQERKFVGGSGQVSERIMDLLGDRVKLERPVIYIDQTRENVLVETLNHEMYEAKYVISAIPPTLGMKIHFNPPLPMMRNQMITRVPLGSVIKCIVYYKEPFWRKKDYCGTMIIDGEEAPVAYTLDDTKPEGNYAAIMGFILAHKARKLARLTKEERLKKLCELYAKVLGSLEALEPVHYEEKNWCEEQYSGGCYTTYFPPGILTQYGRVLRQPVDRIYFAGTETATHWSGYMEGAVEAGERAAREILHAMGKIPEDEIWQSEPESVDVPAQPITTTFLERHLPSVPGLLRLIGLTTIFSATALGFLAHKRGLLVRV
Briefly: biochemical. Particulars: read-out: hMAO-B (IC50); recombinant hMAO-B, p-tyramine substrate. The procedure:
(§1) The hMAO-A/B inhibition of all compounds was determined using the Amplex Red MAO assay kit.
(§2) Assays were performed following the general procedure previously described.[98] […] The specific fluorescence emission was calculated after subtracting the background activity, which was determined from wells containing all components except the hMAO isoforms, which were replaced with PBS.

Another data set addresses T2, hMAO-A (Homo sapiens, UniProt P21397).
T2 sequence (P21397 1-527): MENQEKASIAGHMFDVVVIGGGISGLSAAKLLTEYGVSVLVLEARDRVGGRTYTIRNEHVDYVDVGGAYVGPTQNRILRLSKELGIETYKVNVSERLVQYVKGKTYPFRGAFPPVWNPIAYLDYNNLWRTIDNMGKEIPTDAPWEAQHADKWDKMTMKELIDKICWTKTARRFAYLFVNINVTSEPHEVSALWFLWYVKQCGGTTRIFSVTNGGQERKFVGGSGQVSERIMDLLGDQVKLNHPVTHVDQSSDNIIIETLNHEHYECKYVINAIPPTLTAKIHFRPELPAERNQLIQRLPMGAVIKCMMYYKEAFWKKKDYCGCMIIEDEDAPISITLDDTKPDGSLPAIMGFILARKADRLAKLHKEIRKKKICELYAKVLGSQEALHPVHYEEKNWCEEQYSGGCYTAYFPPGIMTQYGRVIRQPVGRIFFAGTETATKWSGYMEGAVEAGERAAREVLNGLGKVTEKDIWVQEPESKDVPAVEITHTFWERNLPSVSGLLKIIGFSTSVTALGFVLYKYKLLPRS
Briefly: biochemical. To be noted: read-out: hMAO-A (IC50); recombinant hMAO-A, p-tyramine substrate. The procedure: as §1, §2

A short description of a further data set: in vitro. Type of data set: in vitro ADME.
The next data set deals with T3, QR2 (Mesocricetus auratus, UniProt A0ABM2YAB8).
T3 sequence (A0ABM2YAB8 1-231): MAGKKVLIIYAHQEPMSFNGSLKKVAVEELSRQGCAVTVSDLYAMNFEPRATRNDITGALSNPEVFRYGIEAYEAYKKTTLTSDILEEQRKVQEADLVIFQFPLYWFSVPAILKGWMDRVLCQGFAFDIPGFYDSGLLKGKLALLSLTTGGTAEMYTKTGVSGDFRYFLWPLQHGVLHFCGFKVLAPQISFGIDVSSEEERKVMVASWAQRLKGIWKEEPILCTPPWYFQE
The experiment in a line: biochemical. The procedure: The QR2 experiments were performed in membrane homogenates of hamster brains (https://www.eurofins.fr, catalog ref. 0088). […] First, radioligand displacement was measured at a fixed compound concentration (10 μM) in each receptor.

In the case of `C#CCn1nc(/C=C/c2ccc(OC)cc2)oc1=O` [4e, 5-[(E)-2-(4-Methoxyphenyl)ethenyl]-3-(prop-2-yn-1-yl)-1,3,4-oxadiazol-2(3H)-one], the iNOS level entry in the data set on iNOS is “reduced to basal levels”. In data set [1], the “NRF2 (CD, μM)” value came out at 9.83 ± 0.6 µM. For the same compound, the figures for the IC50 at hMAO-B, at hMAO-A and at QR2 were 8.05 ± 1.82 µM, greater than 50 µM and 0.57 ± 0.04 µM, respectively. Further, the Papp at 240 min, 100 μg mL^–1 in “in vitro” (PAMPA, pH 7.4, class from PAMPA-BBB Pe, read-out: CNS-permeability prediction) was greater than 4 ×10⁻⁶ cm/s. Besides, the “PAMPA-BBB (Pe, 10^–6 cm s^–1)” value in “in vitro” (porcine brain lipid, PBS/EtOH (70:30), 240 min, 25 °C) is 8.0 ± 0.5 10^–6 cm s^–1.
